From patent US20090197818A1, “Use Of Ribose for Recovery From Anaesthesia” (priority 2004, published 2009)

Columns and labels:
[1] = test system: adult patients selected for OCBP revascularization; assay: Presurgical oral D-ribose loading before off cardiopulmonary bypass (OCBP) revascularization: cardiac indices; assay type: in vivo, human; settings: 24 patients oral D-ribose preoperatively vs 20 without; baseline to post-operative; p<0.028
Source text: Patients with stable coronary artery disease or patients presenting with acute myocardial infarction may undergo revascularization using an “off” cardiopulmonary bypass procedure (“OCBP”). This procedure avoids the deleterious effects of cross-clamping in patients who can be selected for the procedure. The selection criteria include: accessibility of the grafts; number of the grafts; condition of the patient. When the area to be revascularized is at the back of the heart, the heart will need to be handled and rotated, which would interfere with the beating of the heart. If several grafts are needed, the time of operation is prolonged and the patient's heart will need to support circulation for a long time. Finally, a poorly functioning heart will need the assistance of the pump to support circulation. Nevertheless, in properly selected patients, the benefits of avoiding cross-clamping are substantial.
Forty-four adult patients were enrolled in a trial. At least one-third of the patents had sustained an acute myocardial infarction prior to presentation and pre-operative ejection fractions ranged from 30-72%. All patients were selected for OCBP revascularization with 20 patients consuming no pre-operative ribose and 24 patients given oral D-ribose preoperatively, cardiac indices were measured at baseline and post-operatively. […]

[2] = test system: patients undergoing valve surgery plus CABG or CABG alone with aortic cross clamping; assay: Double-blind placebo-controlled clinical trial of intravenous D-Ribose in cardiac surgery: ejection fraction by echocardiography; assay type: in vivo, human; settings: placebo EF declined; ANOVA repeated measures p=0.04
Source text: A protocol was devised to test whether human subjects undergoing either valve surgery plus coronary artery bypass graft (CABG) or CABG alone with decreased heart function would benefit from the administration of ribose following heart surgery as did the healthy dogs of the Foker study. […] Inclusion criteria were: • Males or females aged 18 or older • Patients with documented coronary artery disease undergoing CABG with an ejection fraction (EF) of ≦35% based on echocardiography, radionuclide imaging or cardiac catheterization done within eight weeks of surgery. […] For both the transesophageal and transthoracic echocardiograms, the following long axis and short axis mid-papillary area changes were measured in triplicate by acoustic quantification techniques: end diastolic area (EDA), end systolic area (ESA), fractional area change (FAC), +dA/dt and -dA/dt. All area change data were also analyzed by manual off line analysis. EF was also determined off line using a long axis view. In addition, regional wall motion was quantified as the following: normal=1, hypokinetic=2, akinetic=3 and dyskinetic=4. The wall motion index score (WMIS) and percentage normal myocardium were calculated by reading a maximum of sixteen segments. […]

[3] = Blood glucose monitoring and clinical laboratory safety in the intravenous D-Ribose cardiac surgery trial; assay type: in vivo, human
Procedure: Blood glucose levels were determined hourly, after initiation of the study drug infusion, by dextrastix (Accu-Chk III, Boehringer Mannheim Corp. Indianapolis Ind.) using blood from an intraarterial catheter. If the blood glucose level remained stable for 12 hours, then subsequent blood glucose levels were measured every 4 to 6 hours until the study drug infusion was stopped. Other clinical laboratory measurements including complete CBC with differential, platelet count, electrolytes=, liver function studies, serum osmolarity, and urinalysis were completed the morning following surgery. Abnormal laboratory tests were repeated as clinically indicated until normal or determined not to be clinically significant.
Five patients (28%) in the ribose treated group developed hypoglycemia (fingerstick glucose<70 mg/dl)) a known side effect of this pentose sugar. No placebo treated patients developed hypoglycemia. The mean glucose level in those patients developing hypoglycemia was 58 mg/dl. The lowest glucose level was 31 mg/dl. […] The study drug infusion was stopped in two subjects because of hypoglycemia. […] There were no statistical differences in the other clinical laboratory measurements.

[4] = test system: patients with aortic valve disease undergoing AVR; assay: Planned clinical trial: preconditioning with oral D-Ribose before cross clamping, then intravenous infusion; assay type: in vivo, human; settings: oral D-Ribose 7 or 14 days before surgery, then i.v. 100 mg/kg/hour for five days
Source text: A single-center, randomized, double-blinded placebo-controlled clinical trial was designed to determine if preoperative oral administration of D-Ribose, following by peri-operative and operative intravenous infusion of D-Ribose could improve the ejection fraction and other functional parameters of hearts that are cross-clamped for various cardiac surgical procedures. Thirty (30) patients meeting the inclusion and exclusion criteria and who have signed informed consent forms will be randomized to receive oral D-Ribose (15) or D-Glucose (placebo) (15) for seven or 14 days prior to their surgical procedure and intravenous 5% […] (5% D-Glucose in normal saline, 0.5 mL/kg/hour) or 10% pyrogen-free D-Ribose in 5% D5W at a dose of 100 mg/kg/hour for five (5) days through a pulmonary artery cordis) beginning at the time of aortic cross clamping. […] Patients will be evaluated baseline ×2, (once prior to beginning oral test supplement and again within three days prior to surgical procedure), during and after surgery, and at days 1, 5 and 7. […] Patients will be evaluated for eligibility within three days to first test article administration and evaluation will be updated within three days prior to surgery. […] A medication history will be taken and all medications recorded in the case report. […]

healthy dog hearts = settings: D-Ribose from reperfusion for at least four days; U.S. Pat. No. 4,719,201; cited from earlier work
[5] = test system: patients recovering from hip or knee replacement operations; assay: Anecdotal results from non-cardiac surgery with general anaesthesia; assay type: in vivo, human
Source text: For example, a person underwent two hip replacement operations, five months apart. With the second operation, they began taking oral ribose immediately after their recovery from anaesthesia. Their recovery to a feeling of alertness and energy was more rapid than after the first operation. Furthermore, their level of pain was less. Likewise, a person also underwent two knee replacement operations. With the second operation, they self-administered D-Ribose pre- and postoperatively. Their recovery to a feeling of alertness and energy was more rapid than after the first operation. Bauer et al. (Z. Geb. Neonatal 2001 May-June, 205(3):80-85) studied the efficacy of oral glucose for treating procedural pain in neonates. […] The authors proposed that the orogustatory stimulation by the sweet taste caused an endorphin release. It is not known whether the result seen was due to the local effect or to a systemic effect of glucose.

Wistar rats = assay: Planned non-cardiac sham abdominal surgery study under halothane anaesthesia; assay type: in vivo, rat; settings: D-Ribose before, during and after sham operation
Procedure: Littered-paired Wistar rats will be preconditioned with oral D-Ribose (250 mg/day, 10 animals) as a test drug or D-Glucose(250 mg/day, 10 animals) as a placebo for five days. Following the preconditioning, the rats will be anesthetized with halothane, intubated for artificial respiration and paralyzed with curare. Following general anaesthesia, the rats will be given either the test drug or placebo, intravenously (IV). A two-inch abdominal incision will be made and the viscera will be carefully manipulated to simulate an abdominal exploratory surgery. The incision will be closed and the animals will be held under anaesthesia for one additional hour. Following that hour, anaesthesia will be discontinued and the IV infusion will be halted. The animals will be placed individually in activity cages and their activity will be assessed daily for five days. Test drug or placebo will be added to the drinking water at a dosage of 5% wt/vol. The blinded results will be observed for: first movement (return to consciousness following the sham operation) and daily activity over the first day and next five days. Food and water intake and gastrointestinal function will be measured.

rats = settings: halothane for 30 minutes; Hendricks et al. 1984; cited from earlier work

What does the source list for `O=C[C@H](O)[C@H](O)[C@H](O)CO` [D-Ribose]?
greater increase in cardiac indices compared to controls [1]: 49%; course of EF from baseline to Day 7 versus placebo [2]: EF was maintained; patients with neurological or other clinical symptoms associated with hypoglycemia ([3]; hypoglycemic patients of the ribose treated group): None; lowest glucose level ([3]; ribose treated group): 31 mg/dL; mean glucose level in patients developing hypoglycemia ([3]; ribose treated group): 58 mg/dL; patients who developed hypoglycemia (fingerstick glucose<70 mg/dl) ([3]; ribose treated group, five patients, none in placebo): 28%; expected myocardial function versus placebo [4]: better myocardial function; ATP recovery after global myocardial ischemia (healthy dog hearts): enhanced ATP recovery; recovery to a feeling of alertness and energy compared with first operation ([5]; oral ribose at second operation, single patients): more rapid; level of pain compared with first operation ([5]; person, oral ribose after second hip replacement): less; time to cardiac arrest with cardioplegia containing ribose versus animals not given ribose (cross-bred sheep; difference not statistically significant): somewhat faster; tolerability of supplemental ribose (cross-bred sheep; in vivo): no metabolic or chemical abnormalities; time quiet and inactive after extubation (cross-bred sheep; untreated series: additional 2 hours): about one; time to assume a consciousness state versus animals not given ribose (cross-bred sheep; upon weaning from the ventilator): faster; expected activity during the following five days versus placebo (Wistar rats): increased activity; expected first movement after anaesthesia versus placebo (Wistar rats): earlier movement

Which “behavioural effects during the first week after anaesthesia” value (rats) does the source give for `FC(F)(F)C(Cl)Br` (centres unmarked) [halothane] here?
The value was “reduced spontaneous activity and neurological deficit”.
